System: MDA-MB-231 breast cancer cells
Assay: Western blot analysis of caspase-8/-3 processing and PARP cleavage
Format: cell-based
Conditions: 24 hours; for Concentration inducing processing of caspase-3 and -8 and cleavage of PARP: concentrations as low as

Structure (SMILES)	Processing of caspase-8 and -3 and cleavage of PARP	Concentration inducing processing of caspase-3 and -8 and cleavage of PARP
CN[C@@H](C)C(=O)N[C@H]1CCCC[C@H]2CC[C@@H](C(=O)N[C@@H]3CCCc4ccccc43)N2C1=O [Compound 8]	effectively induce processing of caspase-8 and -3 and cleavage of PARP in a dose-dependent manner	≤ 10 nM
CN[C@@H](C)C(=O)N[C@H]1CCCC[C@H]2CC[C@@H](C(=O)NC(c3ccccc3)c3ccccc3)N2C1=O [Compound 7]	effectively induce processing of caspase-8 and -3 and cleavage of PARP in a dose-dependent manner	
CN[C@@H](C)C(=O)N[C@H]1CCCC[C@H]2[C@@H](Cc3ccccc3)C[C@@H](C(=O)N[C@@H]3CCCc4ccccc43)N2C1=O [Compound 10]	effectively induce processing of caspase-8 and -3 and cleavage of PARP in a dose-dependent manner	≤ 10 nM

Reference: PMC2795317 (Journal of medicinal chemistry, 2009)
